Experiments:
[1] = tested on: Ca2+ permeable AMPAR (CP-AMPAR); assay: Ca2+ imaging (Fluo-3) of hippocampal brain slices, AMPA + CTZ application (CP-AMPA reaction); type: cell-based, mouse
[2] = tested on: NMDA receptor (NMDAR); assay: Ca2+ imaging (Fluo-3) of hippocampal brain slices, NMDA + glycine application (NMDA reaction); type: cell-based, mouse; conditions: for function of NMDAR in EC, CA1, CA2, CA3 and DG: leptin 100 nM
[3] = tested on: NL-G-F(−/−) mice; assay: Hippocampus function-dependent fear conditioning test in NL-G-F(−/−) mice; type: in vivo, mouse; conditions: perampanel alone 5 mg/kg or 10 mg/kg
Experimental: Contextual fear conditioning was applied with slight modifications to published protocols (50). Mice were transferred to the animal experimental room and allowed to acclimatize for at least 30 minutes prior to contextual fear conditioning training. Next, the mice were placed in a foot shock system model MK-450 MSQ (Muromachi Kikai Co., Ltd., Japan), searching was performed for 2 minutes, and then 3 electric foot shocks (0.8 mA, 2 sec, 2 min interval) were performed. After mice were left in the apparatus for an additional 1 minute, the animals were removed.
NL-G-F(−/−) mice, a dementia model, were administered with memantine (mema), exercise, memantine and exercise, memantine and perampanel, and perampanel alone (5 mg/kg or 10 mg/kg), and subjected to behavioral experiments. As the behavior test, a novel object recognition test and a hippocampus function-dependent fear conditioning test were performed. Memantine is an antagonist of the NMDA receptor, but has distinct properties from other NMDA receptor antagonists (refer to Hokama Y., et al., Neuro Oncology, 2022, noac162). That is, memantine is a drug that works only when glutamic acid is excessively present in the brain.

In the case of NCCCNCCCCNCCCNC(=O)Cc1cccc2ccccc12 [NASPM, N-[3-[[4-[(3-aminopropyl)amino]butyl]amino]propyl]-1-naphthaleneacetamide], the “increase in [Ca2+]i via AMPAR” value [1] is reported as “completely repressed”, the “increase in [Ca2+]i via pathological AMPARs” value [1] is reported as “disappeared” and the “inhibitory effect on CP-AMPAR in EC, CA1, CA2, CA3 and DG” value [1] is reported as “significant inhibitory effect”.

C[C@H](CCC(=O)O)C[C@H](C)C[C@H](C)C(=O)/C=C(\O)[C@H](C)C[C@H](C)C/C=C/[C@@H](C)[C@@H](O)[C@@H](C)[C@@H](O)C[C@@H]1CC[C@@](C)([C@H]2CC[C@@](C)([C@@H](C)O)O2)O1 [ionomycin] was tested, and the “NMDA receptor reactivity due to addition of NMDA and glycine” value ([2]; slices of 14 to 16 week old mice on normal diet, 2 mM Ca2+, pretreated with 1 μM ionomycin for 10 min, n=4) was “disappeared”.

For “leptin: a hormone that regulates energy expenditure”, the “function of NMDAR in EC, CA1, CA2, CA3 and DG” value ([2]; HFD mice orally administered PER) was “significantly enhanced” and the “function of NMDAR in EC, CA1, CA2, CA3 and DG” value ([2]; ob/ob mice orally administered PER) was “significantly enhanced”.

Cc1cn2c(n1)Cc1ccc(Cl)cc1C(c1ccc(N)cc1)=N2 [GYKI 47261] was tested, and the “increase in [Ca2+]i via AMPAR” value [1] was “completely repressed”, the “increase in [Ca2+]i via pathological AMPARs” value [1] was “disappeared” and the “inhibitory effect on CP-AMPAR in EC, CA1, CA2, CA3 and DG” value [1] was “significant inhibitory effect”.

N[C@H](CCCP(=O)(O)O)C(=O)O [APV, D-(−)-2-amino-5 phosphonovaleric acid] was tested, and the “NMDA receptor reactivity to NMDA and glycine” value ([2]; 2 w HFD slices under calcium ion-free (0 mM Ca) conditions, in the presence of APV) was “disappeared” and the “NMDA receptor reactivity to NMDA and glycine” value ([2]; BAPTA-AM-treated 2 w HFD slices, APV 50 μM simultaneously with NMDA and glycine) was “abolished”.

In the case of CC12CC3CC(C)(C1)CC(N)(C3)C2 [memantine], the “cognitive function in hippocampus function-dependent fear conditioning test” value [3] is reported as “improvement in cognitive function”.

With CC(=O)OCOC(=O)CN(CC(=O)OCOC(C)=O)c1ccccc1OCCOc1ccccc1N(CC(=O)OCOC(C)=O)CC(=O)OCOC(C)=O [BAPTA-AM] the “NMDA receptor reactivity to NMDA (50 μM) and glycine (10 μM)” value ([2]; brain slices of 2 w HFD mice treated 60 min with 3 μM BAPTA-AM, n=3) was “restoration of reactivity”.

From patent publication US20240398775A1, “PHARMACEUTICAL COMPOSITION FOR USE IN TREATING COGNITIVE DECLINE OR FOR USE IN TREATING OVERWEIGHT OR OBESITY” (University of the Ryukyus, priority 2021, published 2024)
